In article PMC9067983, “Identification of highly selective type II kinase inhibitors with chiral peptidomimetic tails” (Journal of Enzyme Inhibition and Medicinal Chemistry, 2022):
Where a SMILES comes first, the peptide text is derived from it. [ ]: non-standard residue; d: D form. The star is where a group is joined. X1 = Cc1ccc(Nc2ncc3c(n2)N(C)C(=O)N(c2cc(C(=O)*)ccc2C)C3)cn1; Aib = CC(C)(N)C(=O)O

Experiments:
Assay in all cases: kinase selectivity profiling
Type in all cases: biochemical
Settings in all cases: 10µM ATP, read-out: % inhibition (relative to DMSO)
ALK4/ACVR1B = target: T1, ALK4/ACVR1B (Homo sapiens, UniProt P36896)
T1 construct: purchased Reaction Biology Corp
T1 sequence (P36896 24-505): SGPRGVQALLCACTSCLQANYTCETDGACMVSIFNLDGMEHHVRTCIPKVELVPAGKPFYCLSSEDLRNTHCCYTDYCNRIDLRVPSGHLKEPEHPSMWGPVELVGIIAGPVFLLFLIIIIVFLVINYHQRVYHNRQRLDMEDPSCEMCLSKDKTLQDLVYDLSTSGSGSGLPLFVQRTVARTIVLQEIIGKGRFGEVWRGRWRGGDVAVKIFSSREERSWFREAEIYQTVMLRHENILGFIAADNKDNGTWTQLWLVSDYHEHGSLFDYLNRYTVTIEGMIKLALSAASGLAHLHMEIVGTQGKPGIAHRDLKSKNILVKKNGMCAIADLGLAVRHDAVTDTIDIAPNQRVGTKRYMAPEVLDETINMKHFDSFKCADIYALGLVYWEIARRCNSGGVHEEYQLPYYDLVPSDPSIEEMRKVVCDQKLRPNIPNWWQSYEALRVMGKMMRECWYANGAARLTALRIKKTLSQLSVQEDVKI
Method: (§1) Full panel kinase profiling and kinase IC50 measurement were performed by using Reaction Biology Corp. (San Diego, USA).

BRAF = target: T2, BRAF (Homo sapiens, UniProt P15056)
T2 construct: purchased Reaction Biology Corp
Method: as §1

BRK = target: T3, BRK (Homo sapiens, UniProt Q13882)
T3 construct: purchased Reaction Biology Corp
Method: as §1

CAMK1g = target: T4, CAMK1g (Homo sapiens, UniProt Q96NX5)
T4 construct: purchased Reaction Biology Corp
T4 sequence (Q96NX5 whole entry): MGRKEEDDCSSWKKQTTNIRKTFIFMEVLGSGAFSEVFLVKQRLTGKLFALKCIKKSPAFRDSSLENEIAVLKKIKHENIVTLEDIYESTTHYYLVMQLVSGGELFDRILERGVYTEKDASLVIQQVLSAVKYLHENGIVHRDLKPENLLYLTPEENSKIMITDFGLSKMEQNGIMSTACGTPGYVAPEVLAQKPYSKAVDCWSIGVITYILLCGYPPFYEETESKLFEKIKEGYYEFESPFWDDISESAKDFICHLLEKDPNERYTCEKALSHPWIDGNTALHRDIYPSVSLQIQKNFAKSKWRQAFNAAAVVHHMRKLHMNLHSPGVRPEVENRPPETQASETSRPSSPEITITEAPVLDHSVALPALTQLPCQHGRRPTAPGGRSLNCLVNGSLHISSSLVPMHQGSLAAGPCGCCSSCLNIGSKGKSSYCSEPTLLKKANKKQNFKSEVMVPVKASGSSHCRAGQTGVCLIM
Method: as §1

CAMK2b = target: T5, CAMK2b (Homo sapiens, UniProt Q13554)
T5 construct: purchased Reaction Biology Corp
Method: as §1

CAMK2g = target: T6, CAMK2g (Homo sapiens, UniProt Q13555)
T6 construct: purchased Reaction Biology Corp
T6 sequence (Q13555 whole entry): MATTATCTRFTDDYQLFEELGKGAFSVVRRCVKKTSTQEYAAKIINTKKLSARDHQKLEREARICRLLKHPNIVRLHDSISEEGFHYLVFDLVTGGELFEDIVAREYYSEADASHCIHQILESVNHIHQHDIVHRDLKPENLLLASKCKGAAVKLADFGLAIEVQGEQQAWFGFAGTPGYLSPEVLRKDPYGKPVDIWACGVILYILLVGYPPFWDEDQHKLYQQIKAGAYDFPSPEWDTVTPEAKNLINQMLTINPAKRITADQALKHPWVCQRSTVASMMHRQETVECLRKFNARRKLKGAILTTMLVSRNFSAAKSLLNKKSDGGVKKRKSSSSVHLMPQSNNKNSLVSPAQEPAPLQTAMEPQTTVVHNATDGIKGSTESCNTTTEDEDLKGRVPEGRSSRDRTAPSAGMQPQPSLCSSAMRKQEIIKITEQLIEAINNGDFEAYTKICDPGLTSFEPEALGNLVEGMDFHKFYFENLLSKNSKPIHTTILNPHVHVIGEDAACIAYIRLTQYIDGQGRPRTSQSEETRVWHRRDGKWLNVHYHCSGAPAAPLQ
Method: as §1

CDK2/cyclin E = target: T7, CDK2/cyclin E (Homo sapiens, UniProt P24941)
T7 construct: purchased Reaction Biology Corp
Method: as §1

CK2a2 = target: T8, CK2a2 (Homo sapiens, UniProt P19784)
T8 construct: purchased Reaction Biology Corp
Method: as §1

DCAMKL1 = target: T9, DCAMKL1 (Homo sapiens, UniProt O15075)
T9 construct: purchased Reaction Biology Corp
Method: as §1

DCAMKL2 = target: T10, DCAMKL2 (Homo sapiens, UniProt Q8N568)
T10 construct: purchased Reaction Biology Corp
T10 sequence (Q8N568 whole entry): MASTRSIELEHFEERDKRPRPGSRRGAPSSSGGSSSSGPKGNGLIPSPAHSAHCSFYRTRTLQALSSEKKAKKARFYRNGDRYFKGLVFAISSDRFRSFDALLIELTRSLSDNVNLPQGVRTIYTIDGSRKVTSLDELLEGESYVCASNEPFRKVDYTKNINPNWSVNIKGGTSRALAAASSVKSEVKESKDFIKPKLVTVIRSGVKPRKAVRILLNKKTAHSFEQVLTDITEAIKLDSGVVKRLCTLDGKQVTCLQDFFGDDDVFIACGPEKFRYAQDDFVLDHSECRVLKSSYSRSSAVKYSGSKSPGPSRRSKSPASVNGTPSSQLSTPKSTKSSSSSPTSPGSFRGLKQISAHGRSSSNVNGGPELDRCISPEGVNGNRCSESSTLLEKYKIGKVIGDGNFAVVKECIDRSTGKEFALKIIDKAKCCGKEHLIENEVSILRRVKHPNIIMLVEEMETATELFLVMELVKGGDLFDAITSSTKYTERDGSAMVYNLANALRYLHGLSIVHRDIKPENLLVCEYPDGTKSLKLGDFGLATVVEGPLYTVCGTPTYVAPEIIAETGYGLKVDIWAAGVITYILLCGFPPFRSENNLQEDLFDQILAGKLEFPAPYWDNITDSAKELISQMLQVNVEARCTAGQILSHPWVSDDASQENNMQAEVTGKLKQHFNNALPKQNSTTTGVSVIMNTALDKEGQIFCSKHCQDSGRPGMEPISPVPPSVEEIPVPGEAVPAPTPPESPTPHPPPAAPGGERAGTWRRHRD
Method: as §1

DMPK = target: T11, DMPK (Homo sapiens, UniProt Q09013)
T11 construct: purchased Reaction Biology Corp
Method: as §1

DMPK2 = target: T12, DMPK2 (Homo sapiens, UniProt Q6DT37)
T12 construct: purchased Reaction Biology Corp
Method: as §1

EPHB4 = target: T13, EPHB4 (Homo sapiens, UniProt P54760)
T13 construct: purchased Reaction Biology Corp
Method: as §1

FER = target: T14, FER (Homo sapiens, UniProt P16591)
T14 construct: purchased Reaction Biology Corp
Method: as §1

FGFR3 = target: T15, FGFR3 (Homo sapiens, UniProt P22607)
T15 construct: purchased Reaction Biology Corp
Method: as §1

FLT3 = target: T16, FLT3 (Homo sapiens, UniProt P36888)
T16 construct: purchased Reaction Biology Corp
Method: as §1

GRK5 = target: T17, GRK5 (Homo sapiens, UniProt P34947)
T17 construct: purchased Reaction Biology Corp
Method: as §1

GRK6 = target: T18, GRK6 (Homo sapiens, UniProt P43250)
T18 construct: purchased Reaction Biology Corp
Method: as §1

HIPK4 = target: T19, HIPK4 (Homo sapiens, UniProt Q8NE63)
T19 construct: purchased Reaction Biology Corp
T19 sequence (Q8NE63 whole entry): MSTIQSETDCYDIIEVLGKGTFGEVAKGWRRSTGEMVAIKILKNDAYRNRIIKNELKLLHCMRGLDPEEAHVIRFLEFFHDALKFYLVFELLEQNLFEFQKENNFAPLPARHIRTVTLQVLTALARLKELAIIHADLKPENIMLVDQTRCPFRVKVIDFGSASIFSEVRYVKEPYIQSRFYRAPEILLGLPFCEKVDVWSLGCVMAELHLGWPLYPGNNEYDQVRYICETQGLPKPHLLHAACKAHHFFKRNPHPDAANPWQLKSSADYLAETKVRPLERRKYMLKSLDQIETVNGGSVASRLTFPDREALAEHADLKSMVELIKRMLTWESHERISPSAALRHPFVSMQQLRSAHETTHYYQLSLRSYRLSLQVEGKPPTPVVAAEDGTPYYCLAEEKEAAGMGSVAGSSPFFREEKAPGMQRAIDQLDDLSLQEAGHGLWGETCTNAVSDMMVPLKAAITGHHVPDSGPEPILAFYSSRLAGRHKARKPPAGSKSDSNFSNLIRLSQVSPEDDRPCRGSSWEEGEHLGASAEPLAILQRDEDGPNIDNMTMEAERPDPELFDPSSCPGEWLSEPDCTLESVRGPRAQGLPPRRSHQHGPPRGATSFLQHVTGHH
Method: as §1

HPK1/MAP4K1 = target: T20, HPK1/MAP4K1 (Homo sapiens, UniProt Q92918)
T20 construct: purchased Reaction Biology Corp
T20 sequence (Q92918 whole entry): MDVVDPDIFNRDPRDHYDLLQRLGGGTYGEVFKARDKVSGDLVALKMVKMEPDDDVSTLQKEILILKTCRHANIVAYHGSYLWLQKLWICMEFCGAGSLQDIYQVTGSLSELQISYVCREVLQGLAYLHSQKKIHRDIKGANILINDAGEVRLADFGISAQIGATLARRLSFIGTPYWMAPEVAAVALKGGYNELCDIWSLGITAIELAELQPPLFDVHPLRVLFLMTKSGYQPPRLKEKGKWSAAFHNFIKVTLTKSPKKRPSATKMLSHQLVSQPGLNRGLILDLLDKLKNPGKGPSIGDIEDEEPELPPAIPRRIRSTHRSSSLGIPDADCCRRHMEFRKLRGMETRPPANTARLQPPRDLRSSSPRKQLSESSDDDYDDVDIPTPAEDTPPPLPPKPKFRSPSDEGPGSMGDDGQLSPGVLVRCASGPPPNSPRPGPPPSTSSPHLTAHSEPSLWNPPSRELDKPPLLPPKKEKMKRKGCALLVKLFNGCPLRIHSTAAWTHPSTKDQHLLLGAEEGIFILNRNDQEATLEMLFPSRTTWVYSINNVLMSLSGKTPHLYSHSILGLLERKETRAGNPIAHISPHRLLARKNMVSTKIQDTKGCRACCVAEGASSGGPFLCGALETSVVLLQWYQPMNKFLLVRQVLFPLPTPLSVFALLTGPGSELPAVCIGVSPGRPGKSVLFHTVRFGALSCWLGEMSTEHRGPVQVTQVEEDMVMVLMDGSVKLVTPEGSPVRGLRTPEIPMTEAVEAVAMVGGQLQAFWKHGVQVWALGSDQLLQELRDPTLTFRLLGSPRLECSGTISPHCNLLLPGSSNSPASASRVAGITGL
Method: as §1

Haspin = target: T21, Haspin (Homo sapiens, UniProt Q8TF76)
T21 construct: purchased Reaction Biology Corp
Method: as §1

JNK1 = target: T22, JNK1 (Homo sapiens, UniProt P45983)
T22 construct: purchased Reaction Biology Corp
Method: as §1

JNK3 = target: T23, JNK3 (Homo sapiens, UniProt P53779)
T23 construct: purchased Reaction Biology Corp
Method: as §1

MARK4 = target: T24, MARK4 (Homo sapiens, UniProt Q96L34)
T24 construct: purchased Reaction Biology Corp
Method: as §1

MLK1/MAP3K9 = target: T25, MLK1/MAP3K9 (Homo sapiens, UniProt P80192)
T25 construct: purchased Reaction Biology Corp
Method: as §1

MLK4 = target: T26, MLK4 (Homo sapiens, UniProt Q5TCX8)
T26 construct: purchased Reaction Biology Corp
Method: as §1

MUSK = target: T27, MUSK (Homo sapiens, UniProt O15146)
T27 construct: purchased Reaction Biology Corp
Method: as §1

NEK6 = target: T28, NEK6 (Homo sapiens, UniProt Q9HC98)
T28 construct: purchased Reaction Biology Corp
Method: as §1

NEK8 = target: T29, NEK8 (Homo sapiens, UniProt Q86SG6)
T29 construct: purchased Reaction Biology Corp
T29 sequence (Q86SG6 whole entry): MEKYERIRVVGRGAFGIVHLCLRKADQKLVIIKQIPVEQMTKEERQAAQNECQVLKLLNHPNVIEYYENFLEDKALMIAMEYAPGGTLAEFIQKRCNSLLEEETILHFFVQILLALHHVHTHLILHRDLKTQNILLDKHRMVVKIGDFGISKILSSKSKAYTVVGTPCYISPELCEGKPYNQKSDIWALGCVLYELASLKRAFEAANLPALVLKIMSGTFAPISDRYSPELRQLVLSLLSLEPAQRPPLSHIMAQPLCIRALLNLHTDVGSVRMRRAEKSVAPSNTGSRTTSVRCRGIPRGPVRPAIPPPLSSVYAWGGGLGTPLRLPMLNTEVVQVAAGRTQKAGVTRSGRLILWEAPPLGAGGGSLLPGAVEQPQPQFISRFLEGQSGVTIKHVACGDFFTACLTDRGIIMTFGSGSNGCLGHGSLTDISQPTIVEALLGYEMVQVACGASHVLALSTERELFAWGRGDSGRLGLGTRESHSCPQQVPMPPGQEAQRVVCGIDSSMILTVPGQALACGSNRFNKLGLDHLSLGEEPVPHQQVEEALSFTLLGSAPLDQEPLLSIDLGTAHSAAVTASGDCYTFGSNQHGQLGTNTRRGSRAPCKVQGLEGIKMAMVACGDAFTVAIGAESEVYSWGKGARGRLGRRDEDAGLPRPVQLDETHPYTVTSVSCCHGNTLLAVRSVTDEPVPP
Method: as §1

PBK/TOPK = target: T30, PBK/TOPK (Homo sapiens, UniProt Q96KB5)
T30 construct: purchased Reaction Biology Corp
Method: as §1

PKAcb = target: T31, PKAcb (Homo sapiens, UniProt P22694)
T31 construct: purchased Reaction Biology Corp
Method: as §1

PKN1/PRK1 = target: T32, PKN1/PRK1 (Homo sapiens, UniProt Q16512)
T32 construct: purchased Reaction Biology Corp
Method: as §1

PKN2/PRK2 = target: T33, PKN2/PRK2 (Homo sapiens, UniProt Q16513)
T33 construct: purchased Reaction Biology Corp
Method: as §1

PKN3/PRK3 = target: T34, PKN3/PRK3 (Homo sapiens, UniProt Q6P5Z2)
T34 construct: purchased Reaction Biology Corp
Method: as §1

PLK4/SAK = target: T35, PLK4/SAK (Homo sapiens, UniProt O00444)
T35 construct: purchased Reaction Biology Corp
Method: as §1

SIK2 = target: T36, SIK2 (Homo sapiens, UniProt Q9H0K1)
T36 construct: purchased Reaction Biology Corp
Method: as §1

STK32C/YANK3 = target: T37, STK32C/YANK3 (Homo sapiens, UniProt Q86UX6)
T37 construct: purchased Reaction Biology Corp
T37 sequence (Q86UX6 whole entry): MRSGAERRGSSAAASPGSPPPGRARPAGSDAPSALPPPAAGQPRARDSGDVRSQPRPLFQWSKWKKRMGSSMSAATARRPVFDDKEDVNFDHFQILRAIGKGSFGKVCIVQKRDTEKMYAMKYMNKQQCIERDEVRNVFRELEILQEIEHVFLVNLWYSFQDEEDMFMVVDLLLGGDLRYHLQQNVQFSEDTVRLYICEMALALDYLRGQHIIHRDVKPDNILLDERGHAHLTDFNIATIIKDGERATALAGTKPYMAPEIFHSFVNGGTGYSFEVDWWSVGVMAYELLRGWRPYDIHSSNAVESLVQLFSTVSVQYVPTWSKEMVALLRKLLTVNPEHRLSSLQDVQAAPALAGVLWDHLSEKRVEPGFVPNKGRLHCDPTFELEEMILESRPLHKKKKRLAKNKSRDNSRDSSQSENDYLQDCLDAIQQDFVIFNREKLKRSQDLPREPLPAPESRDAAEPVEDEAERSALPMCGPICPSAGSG
Method: as §1

STK39/STLK3 = target: T38, STK39/STLK3 (Homo sapiens, UniProt Q9UEW8)
T38 construct: purchased Reaction Biology Corp
Method: as §1

TAOK3/JIK = target: T39, TAOK3/JIK (Homo sapiens, UniProt Q9H2K8)
T39 construct: purchased Reaction Biology Corp
Method: as §1

TLK2 = target: T40, TLK2 (Homo sapiens, UniProt Q86UE8)
T40 construct: purchased Reaction Biology Corp
Method: as §1

TXK = target: T41, TXK (Homo sapiens, UniProt P42681)
T41 construct: purchased Reaction Biology Corp
Method: as §1

YSK4/MAP3K19 = target: T42, YSK4/MAP3K19 (Homo sapiens, UniProt Q56UN5)
T42 construct: purchased Reaction Biology Corp
Method: as §1

p38b/MAPK11 = target: T43, p38b/MAPK11 (Homo sapiens, UniProt Q15759)
T43 construct: purchased Reaction Biology Corp
Method: as §1

Measured: inhibition at 1 µM

Cc1ccc(Nc2ncc3c(n2)N(C)C(=O)N(c2cc(C(=O)N[C@H](C(=O)N4CCC[C@H]4C(=O)NC(C)(C)C(=O)N[C@@H](CC(C)C)C(=O)N(C)C)C(C)C)ccc2C)C3)cn1 [7a, (S)-N-(1-(((S)-1-(dimethylamino)-4-methyl-1-oxopentan-2-yl)amino)-2-methyl-1-oxopropan-2-yl)-1-((4-methyl-3-(1-methyl-7-((6-methylpyridin-3-yl)amino)-2-oxo-1,4-dihydropyrimido[4,5-d]pyrimidin-3(2H)-yl)benzoyl)-L-valyl)pyrrolidine-2-carboxamide] (X1-VP[Aib]L-NMe2)
5%: PLK4/SAK
8%: PKN3/PRK3
13%: p38b/MAPK11
3%: CAMK2b | CK2a2 | PKAcb
18%: FLT3
2%: SIK2 | STK32C/YANK3
7%: BRAF | CAMK1g | MLK4 | MUSK
4%: GRK6
33%: MLK1/MAP3K9
1%: GRK5 | HIPK4 | Haspin | JNK3 | NEK8 | PKN1/PRK1
16%: EPHB4
0%: all other assays above
